From patent US9096615B2, “Bridged bicyclic amino thiazine dioxide compounds as inhibitors of beta-secretase and methods of use thereof” (AMGEN INC., priority 2013, dated 2015) come the findings set out here.

One assay has as its target T1, human Bace2 protein (Homo sapiens, UniProt Q9Y5Z0).
T1 construct: V5 (C); 6-His (C)
T1 sequence (Q9Y5Z0 63-518): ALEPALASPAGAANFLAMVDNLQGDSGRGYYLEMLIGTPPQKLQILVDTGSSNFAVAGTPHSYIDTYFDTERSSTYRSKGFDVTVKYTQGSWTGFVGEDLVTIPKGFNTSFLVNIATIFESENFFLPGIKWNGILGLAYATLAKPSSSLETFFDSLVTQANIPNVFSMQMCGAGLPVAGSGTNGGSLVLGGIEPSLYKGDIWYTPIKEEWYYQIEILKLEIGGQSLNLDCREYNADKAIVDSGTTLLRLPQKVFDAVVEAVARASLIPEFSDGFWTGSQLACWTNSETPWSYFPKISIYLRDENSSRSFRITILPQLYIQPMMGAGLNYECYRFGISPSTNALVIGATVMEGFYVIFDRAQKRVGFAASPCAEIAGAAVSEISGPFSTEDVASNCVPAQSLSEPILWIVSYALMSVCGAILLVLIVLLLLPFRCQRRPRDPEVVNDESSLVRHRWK
Description: In vitro enzymatic BACE2 FRET assay. To be noted: average IC50; read-out: BACE2 Enzyme assay IC50. The class given is biochemical. A digest of the protocol:
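Human Bace2 with C-terminal V5/6-His tag (0.2 nM) pre-incubated 1 h with inhibitor in 0.05 M acetate pH 4.2, 10% DMSO, 100 uM genapol; reaction started with 50 nM FRET peptide substrate, run 1 h. Stopped with Tris to neutral pH; fluorescence increase from substrate cleavage measured.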

Another assay concerns the target T2, Cathepsin D (Cat D) (Homo sapiens, UniProt P07339).
T2 construct: made in house; host or cells: CHO cells
Put plainly: In vitro enzymatic Cathepsin D (Cat D) FRET assay. It counts as biochemical. To be noted: average IC50; first procedure; read-out: CatD IC50. The method in brief: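 Fluorescence (500 nm excitation, 580 nm emission) was measured after Tris quench of a 1 h cleavage of 20 nM quenched peptide substrate. Before that, 9 nM CHO-expressed human Cat D sat with compound for 1 h at pH 3.5 (0.05 M citrate, 5 mM CHAPS, 10% DMSO final).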

The subject of a further assay is Abeta 40. Put plainly: In vivo inhibition of beta-secretase: percent Abeta 40 reduction in CSF and brain. Further details: species or system rat. The note with it: after 4 hrs; for inhibition in vivo at 10 mg/kg: 10 mpk. An excerpt:
In Vivo Inhibition of Beta-Secretase
Several animal models, including mouse, rat, dog, and monkey, may be used to screen for inhibition of beta-secretase activity in vivo following administration of a test compound sample. Animals used in this invention can be wild type, transgenic, or gene knockout animals. For example, the Tg2576 mouse model, prepared and conducted as described in Hsiao et al., 1996, Science 274, 99-102, and other non-transgenic or gene knockout animals are useful to analyze in vivo inhibition of Amyloid beta peptide (Abeta) production in the presence of inhibitory test compounds. Generally, 2 to 18 month old Tg2576 mice, gene knockout mice or non-transgenic animals are administered test compounds formulated in vehicles, such as cyclodextran, phosphate buffers, hydroxypropyl methylcellulose or other suitable vehicles. One to twenty-four hours following the administration of compound, animals are sacrificed, and brains as well as cerebrospinal fluid (CSF) and plasma are removed for analysis of A-beta levels and drug or test compound concentrations (Dovey et al., 2001, Journal of Neurochemistry, 76, 173-181) Beginning at time 0, animals are administered by oral gavage, or other means of delivery such as intravenous injection, an inhibitory test compound of up to 100 mg/kg in a standard, conventional formulation, such as 2% hydroxypropyl methylcellulose, 1% Tween80. A separate group of animals receive 2% hydroxypropyl methylcellulose, 1% Tween80 alone, containing no test compound, and serve as a vehicle-control group. At the end of the test period, animals are sacrificed and brain tissues, plasma or cerebrospinal fluid are collected. Brains are either homogenized in 10 volumes (w/v) of 0.2% diethylamine (DEA) in 50 mM NaCl (Best et al., 2005, Journal of Pharmacology and Experimental Therapeutics, 313, 902-908), or in 10 volumes of 0.5% TritonX-100 in Tris-buffered saline (pH at about 7.6). Homogenates are centrifuged at 355,000 g, 4° C. for 30 minutes. CSF or brain supernatants are then analyzed for the presence of A-beta peptide by specific sandwich ELISA assays based on ECL (Electrochemiluminescence) technology. For example, rat Abeta40 is measured using biotinylated-4G8 (Signet) as a capture antibody and Fab40 (an in-house antibody specific to the C-terminal of Abeta40) as a detection antibody. For example, 4 hours after administration of 30 mg/kg oral dose of the test compound in 2% hydroxypropyl methylcellulose, 1% Tween80 (pH2.2) to 200 g male Sprague Dawley rats, amyloid beta peptide levels are measured for reduction by X % and Y % in cerebrospinal fluid and brain, respectively, when compared to the levels measured in the vehicle-treated or control […].
Actual vehicles used: Oral: 2% HPMC, 1% Tween80, pH 2.2
• IV: 5% EtOH, 45% Propylene glycol in 5% Dextrose
The compounds of the invention may be shown to reduce the formation and/or deposition of amyloid beta peptide in the cerebrospinal fluid (CSF) as well as in the brain of a mouse or rat at either 3 mpk, 10 mpk or 30 mpk (mpk=mg compound per kg weight of the animal) dosing concentrations after 4 hrs.

Setting [1] is: Abeta 40, rat CSF, read-out: % reduction of rat CSF levels at 10 pmk.
[2] abbreviates: Abeta 40, rat brain, read-out: % reduction of rat brain levels at 10 mpk.

The structures appear in SMILES notation. Read-outs that look alike come from different tables or passages of the source. Where only a bound is given, the exact number is not on record here.

T2 sequence (P07339 65-412, species assumed): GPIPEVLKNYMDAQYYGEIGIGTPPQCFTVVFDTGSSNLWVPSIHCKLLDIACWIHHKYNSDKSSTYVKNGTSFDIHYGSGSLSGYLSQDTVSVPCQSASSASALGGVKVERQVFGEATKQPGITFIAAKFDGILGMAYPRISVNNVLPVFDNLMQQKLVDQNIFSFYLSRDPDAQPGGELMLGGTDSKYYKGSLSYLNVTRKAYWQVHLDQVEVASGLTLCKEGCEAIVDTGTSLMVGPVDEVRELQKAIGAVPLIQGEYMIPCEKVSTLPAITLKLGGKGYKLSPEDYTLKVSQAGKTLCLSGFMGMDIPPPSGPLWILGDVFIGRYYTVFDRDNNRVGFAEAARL

For orientation: IC50 means the concentration needed to halve the response being measured. Regarding `C[C@]1(c2cc(Nc3ncnc4cc(C#N)cnc34)ccc2F)N=C(N)[C@@]2(CF)CC[C@@H]1S2(=O)=O` [Example 40, 4-((3-((1S,2R,5R)-4-amino-5-(fluoromethyl)-2-methyl-8,8-dioxido-8-thia-3-azabicyclo[3.2.1]oct-3-en-2-yl)-4-fluorophenyl)amino)pyrido[3,2-d]pyrimidine-7-carbonitrile], the IC50 at human Bace2 protein turned out to be 0.022 µM; at Cathepsin D (Cat D), 650 µM. For the same molecule, the values for the inhibition in vivo at 10 mg/kg in the assay with Abeta 40 (setting [1]) and in the assay on Abeta 40 (setting [2]) were 59% and 24%, respectively.
The like results for `COc1cnc2c(Nc3ccc(F)c([C@@]4(C)N=C(N)[C@@]5(CF)CC[C@@H]4S5(=O)=O)c3)nccc2n1` [Example 41, N-(3-((1S,2R,5R)-4-amino-5-(fluoromethyl)-2-methyl-8,8-dioxido-8-thia-3-azabicyclo[3.2.1]oct-3-en-2-yl)-4-fluorophenyl)-2-methoxypyrido[3,4-b]pyrazin-5-amine] were, in that order, 0.01 µM, 867 µM, 76% and 62%.
Consider `COc1cnc(C(=O)Nc2ccc(F)c([C@@]3(C)N=C(N)[C@@]4(CF)CC[C@@H]3S4(=O)=O)c2)c(C)c1` [Example 42, N-(3-((1S,2R,5R)-4-amino-5-(fluoromethyl)-2-methyl-8,8-dioxido-8-thia-3-azabicyclo[3.2.1]oct-3-en-2-yl)-4-fluorophenyl)-5-methoxy-3-methyl-2-pyridinecarboxamide], for which the IC50 on human Bace2 protein was 0.003 µM; at Cathepsin D (Cat D), 757 µM. The “% reduction of rat CSF levels (3 mpk)” value in the assay with Abeta 40 (Abeta 40, rat CSF, 3 mpk) is reported as 21 (3 mpk) %. The “% reduction of rat brain levels (3 mpk)” value in the assay with Abeta 40 (Abeta 40, rat brain, 3 mpk) is 0 (3 mpk) %.
Take `C#CCOc1ccc(C(=O)Nc2ccc(F)c([C@@]3(C)N=C(N)[C@@]4(CF)CC[C@@H]3S4(=O)=O)c2)nc1` [Example 52, N-(3-((1S,2R,5R)-4-amino-5-(fluoromethyl)-2-methyl-8,8-dioxido-8-thia-3-azabicyclo[3.2.1]oct-3-en-2-yl)-4-fluorophenyl)-5-(2-propyn-1-yloxy)-2-pyridinecarboxamide]: the IC50 at human Bace2 protein worked out at 0.018 µM; at Cathepsin D (Cat D) it was 811 µM. Also, the values for the inhibition in vivo at 10 mg/kg in the assay on Abeta 40 (setting [1]) and with Abeta 40 (setting [2]) were 67% and 62%, respectively.
As for `COc1cnc2c(Nc3ccc(F)c([C@@]4(C)N=C(N)[C@@]5(CF)CC[C@@H]4S5(=O)=O)c3)nccc2c1` [Example 56, N-(3-((1S,2R,5R)-4-amino-5-(fluoromethyl)-2-methyl-8,8-dioxido-8-thia-3-azabicyclo[3.2.1]oct-3-en-2-yl)-4-fluorophenyl)-3-methoxy-1,7-naphthyridin-8-amine], the IC50 on human Bace2 protein was 0.0185 µM; at Cathepsin D (Cat D) it was more than 400 µM. Moreover, in the assay with Abeta 40 (setting [1]), the inhibition in vivo at 10 mg/kg was found to be 69%.
As to `C#CCOc1cnc(C(=O)Nc2ccc(F)c([C@@]3(C)N=C(N)[C@@]4(CF)CC[C@@H]3S4(=O)=O)c2)c(C)n1` [Example 59, N-(3-((1S,2R,5R)-4-amino-5-(fluoromethyl)-2-methyl-8,8-dioxido-8-thia-3-azabicyclo[3.2.1]oct-3-en-2-yl)-4-fluorophenyl)-3-methyl-5-(2-propyn-1-yloxy)-2-pyrazinecarboxamide], the IC50 on human Bace2 protein amounted to 0.003 µM; on Cathepsin D (Cat D), 837 µM. Moreover, the inhibition in vivo at 10 mg/kg in the assay with Abeta 40 (setting [1]) was determined as 80%; with Abeta 40 (setting [2]), 76%.
The like results for `COc1cnc(C(=O)Nc2ccc(F)c([C@@]3(C)N=C(N)[C@@]4(C)CC[C@@H]3S4(=O)=O)c2)cn1` [Example 61, N-(3-((1S,2R,5R)-4-amino-2,5-dimethyl-8,8-dioxido-8-thia-3-azabicyclo[3.2.1]oct-3-en-2-yl)-4-fluorophenyl)-5-methoxy-2-pyrazinecarboxamide] were, in that order, 0.007 µM, 2500 µM, 80% and 79%.
The like results for `COc1cnc(C(=O)Nc2ccc(F)c([C@@]3(C)N=C(N)[C@@]4(CF)CC[C@@H]3S4(=O)=O)c2)c(C)n1` [Example 76, N-(3-((1S,2R,5R)-4-amino-5-(fluoromethyl)-2-methyl-8,8-dioxido-8-thia-3-azabicyclo[3.2.1]oct-3-en-2-yl)-4-fluorophenyl)-5-methoxy-3-methyl-2-pyrazinecarboxamide] were, in that order, 0.004 µM, 1060 µM, 76% and 66%.
For `C[C@]1(c2cc(NC(=O)c3ccc(Cl)cn3)ccc2F)N=C(N)[C@@]2(CF)CC[C@@H]1S2(=O)=O` [Example 77, N-(3-((1S,2R,5R)-4-amino-5-(fluoromethyl)-2-methyl-8,8-dioxido-8-thia-3-azabicyclo[3.2.1]oct-3-en-2-yl)-4-fluorophenyl)-5-chloro-2-pyridinecarboxamide], in that order: 0.001 µM, 570 µM, 77% and 67%.
Turning to `COc1cnc2c(Nc3ccc(F)c([C@@]4(C)N=C(N)[C@@]5(C)CC[C@@H]4S5(=O)=O)c3)ncc(F)c2c1` [Example 78, N-(3-((1S,2R,5R)-4-amino-2,5-dimethyl-8,8-dioxido-8-thia-3-azabicyclo[3.2.1]oct-3-en-2-yl)-4-fluorophenyl)-5-fluoro-3-methoxy-1,7-naphthyridin-8-amine], the IC50 on human Bace2 protein was 0.005 µM; on Cathepsin D (Cat D) it was 3240 µM. Further, the inhibition in vivo at 10 mg/kg in the assay with Abeta 40 (setting [1]) was found to be 52%; with Abeta 40 (setting [2]), 46%.
Consider `COc1cnc2c(Nc3ccc(F)c([C@@]4(C)N=C(N)[C@@]5(C)CC[C@@H]4S5(=O)=O)c3)nccc2n1` [Example 80, N-(3-((1S,2R,5R)-4-amino-2,5-dimethyl-8,8-dioxido-8-thia-3-azabicyclo[3.2.1]oct-3-en-2-yl)-4-fluorophenyl)-2-methoxypyrido[3,4-b]pyrazin-5-amine], for which the IC50 on human Bace2 protein is 0.015 µM; on Cathepsin D (Cat D) it was more than 400 µM. The inhibition in vivo at 10 mg/kg stood at 72% in the assay on Abeta 40 (setting [1]) and 63% with Abeta 40 (setting [2]).
For `CC#CCOc1cnc(C(=O)Nc2ccc(F)c([C@@]3(C)N=C(N)[C@@]4(C)CC[C@@H]3S4(=O)=O)c2)cn1` [Example 82, N-(3-((1S,2R,5R)-4-amino-2,5-dimethyl-8,8-dioxido-8-thia-3-azabicyclo[3.2.1]oct-3-en-2-yl)-4-fluorophenyl)-5-(2-butyn-1-yloxy)-2-pyrazinecarboxamide], in that order: 0.003 µM, 717 µM, 71% and 56%.
